In test [1] the test system is rat aorta rings with the vascular endothelium preserved. Nature of the test: Phenylephrine-induced contracture in aorta rings with preserved endothelium. The test is classed as cell-based. The following applies: phenylephrine 10 μM; for IC50: Rattus norvegicus, with endothelium, six experiments, read-out: CI50 (μM) Average ± SEM. How it is done: (§1) Once the experiments have been carried out, the findings were subject to statistical analyses being expressed in average ±SEM as a percentage of the control value, and graphs were drawn up using the Sigma Plot 5.0 program to represent the data obtained. For the statistical analysis of the effects on the different muscle tissues, the difference was assessed among the concentrations of the same derivative, using the “t” Student test. In order to ascertain the difference among the derivatives, the one-way ANOVA test was used. The differences were considered as significant for p<0.05. The Cl50 was expressed as an average ±SEM of the values obtained for each experiment through non-linear regression based on the y=yo+ae^−bx equation.
(§2) Male Wistar rats weighing between 240-280 grams were sacrificed through dislocation of the cervical column under anesthesia using ethyl ether. The aorta artery was removed and transferred to a Petri dish containing modified Tyrode's solution whose composition is described in Table 3 below, where the vessel was cleaned and the connective tissue was removed. According to the scheduled Experiment Protocol, the vascular endothelium was removed mechanically with the assistance of a polyethylene rod. The artery was divided into rings with a width of 2-3 mm. Two hooks were placed in the wall of the vessel in order to record the tension generated by the muscle in a transversal direction. To do so, one of the hooks was tied to a fixed point in the chamber and the other to a power transducer (FT 03) for recording the isometric tension. The tension generated by the muscle was transformed into a digitized electric signal (Digidata 1322A) and stored in a computer for subsequent analysis using the Axoscope 8.0 program (Axon Instruments, Inc). The chamber was filled with Krebs solution, oxygenated and kept at a temperature of 37° C.
(§3) After stabilizing the preparation, approximately 120 minutes, the Experiment Protocol began. Initially, in order to identify the presence or absence of the vascular endothelium, the preparation was exposed to phenylephrine (10 μM) and when the contracture in response to this substance was stabilized, acetylcholine (10 μM) was added to the nutrient solution. Relaxation of over 80% in response to the acetylcholine indicated the full integrity of the endothelium and relaxation of less than 10% indicated the absence of endothelium. The tissues in which the relaxation intensity fell between >10% and <80% were discarded. In order to investigate the vasodilator effect of the different L294 analogs, they were added to the experiment chambers in rising concentration after the contracture stabilization of the vessel induced by phenylephrine. The tension registered after treatment with each of the L294 analog concentrations was normalized as a function of the amplitude of the contracture triggered by phenylephrine. For the purpose of comparing the potency of some of the L294 analogs, the Cl50 was determined for each experiment using the y=yo+ae^−bx equation and their mean was used for the statistical analysis.

Test [2] has as its system rat aorta rings with no endothelium. Nature of the test: KCl-induced contracture in aorta rings without endothelium. The following applies: KCl 40 mM; for IC50: Rattus norvegicus, without endothelium, six experiments, read-out: CI50 (μM) Average ± SEM. The test is classed as cell-based. On the procedure:
as §1, §2
as §3, with “[…] […]” for “In order to investigate the vasodilator effect of the different L294 analogs, they were added to the experiment chambers in rising concentration after the contracture stabilization of the vessel induced by phenylephrine. The tension registered after treatment with each of the L294 analog concentrations was normalized as a function of the amplitude of the contracture triggered by phenylephrine.”

The subject of test [3] is tracheal rings of a rat. The experiment in a line: Acetylcholine-induced contracture of trachea rings. The following applies: acetylcholine 10 μM; for muscle relaxation effect on trachea rings: cumulative concentrations up to 200 μM, result in words. The format is cell-based. How it is done: A preparation of trachea rings is used for observing the probable action of these powerful vasodilators in other smooth musculature tissues. FIG. 12 presents the typical record of the acetylcholine-induced trachea rings contracture (Ach, 10 μM) followed by exposure to rising cumulative concentrations of the L785 derivative up to 200 μM. A dose-dependent reduction may be noted in the amplitude of the acetylcholine-induced contracture.
The same protocol was used for the L786 derivative and the solvent (FIG. 13).

Test [4] has as its system soleus (SOL) muscle. Nature of the test: Electrically induced twitch amplitude in slow-fiber skeletal muscle (SOL). The format is cell-based, mice. The following applies: for SOL twitch amplitude 30 min-Washing (% of the control): 30 min after washing. On the procedure:
Male mice weighing 22-28 g were sacrificed through cervical dislocation and the extensor digitorium longus (EDL) and soleus (SOL) muscles were dissected in a Ringer-Krebs solution, whose composition is given in Table 9, at room temperature. The muscles were placed in vertical chambers with a capacity of 10 ml, and were fixed by their ends to the stimulation electrode fixation rod and a power transducer (Grass FT03) for registering muscle twitches. The chamber solution was bubbled continuously with a carbogenic mixture (95% O2/5% CO2) and kept at a temperature of 37° C. The muscles were stimulated electrically through a stimulator (Grass S88) at a frequency of 0.2 Hz, at 37° C. After the stabilization of the muscle twitches (±30 minutes) a control record was taken in the absence of the drug, and subsequently rising concentrations (from 10 μM to 200 μM) of the L294 derivatives were added every ten minutes, diluted in DMSO. […] The signals recorded by the transducer were amplified (Cyberamp) and the isometric tension was digitized (Digidata 1322A) and stored on a computer. The screening and analysis of the experiment was handled through the use of the Axoscope 8.0 program. (Zapata-Sudo, 2003).
A measurement of the electrically-induced twitch amplitude was selected to assist the effects of the L294 analogs on the skeletal muscle inotropism. One muscle consisting of fast fibers (extensor digitorium longus-EDL) and the other of slow fibers (soleus-SOL) taken from mice were selected for this purpose. Differences in the timing of the twitches between the fast and slow muscles are shown at the faster recording speed. […] Washing the preparation with Krebs solution caused a partial reversion of the effects induced by the L786.

Structures are written as SMILES.

As to `O=C(c1ccc2c(c1)OCO2)N(Cc1ccccc1)/N=C/c1cccs1` [L786, 1,3-Benzodioxol-5-carboxylic acid, N-benzyl-N′-[1-thiophene-2-yl-meth-(E)-ylidene]-hydrazide], in test [1], the IC50 amounted to 134 ± 31 µM and the “maximum inhibition levels of phenylephrine contracture, with endothelium” value turned out to be 34.5±7.6%. Moreover, the IC50 in test [2] stood at 151 ± 7.6 µM. The “amplitude of the acetylcholine-induced contracture of trachea rings” value in test [3] (200 μM) is 25.3±12.1 % of the control. Besides, in test [3], the “muscle relaxation effect on trachea rings” value is “The same effect was not observed”. Also, the “effect on SOL muscle twitches” value in test [4] (50 μM, result in words) is “reduction in the amplitude and an extension in the duration of the muscle twitches”. For the same molecule, in test [4], the “SOL twitch amplitude 200 μM (% of the control)” value was 61.9±5.5 % of the control and the “SOL twitch amplitude 30 min-Washing (% of the control)” value is reported as 77.0 ± 10.3 % of the control.

With `CN(/N=C/c1cccs1)C(=O)c1ccc2c(c1)OCO2` [L785, 1,3-Benzodioxol-5-carboxylic acid, N-methyl-N′-[1-thiophene-2-yl-meth-(E)-ylidene]-hydrazide], the IC50 in test [1] turned out to be 10.2 ± 0.5 µM; in test [2], 40.5 ± 9.5 µM. In addition, the “reversal of the contracture caused by K+, without endothelium” value in test [2] (highest concentration 200 μM, result in words) was “unable to completely reverse the contracture”. For the same molecule, the “muscle relaxation effect on trachea rings” value in test [3] is recorded as “significant dose-dependent muscle relaxation effect”. Besides, in test [4], the “SOL twitch amplitude 200 μM (% of the control)” value is given as 28.4±6.6 % of the control. Besides, the “SOL twitch amplitude 30 min-Washing (% of the control)” value in test [4] is on record as 37.9 ± 9.6 % of the control.

For the origin of these results see patent publication US20080275105A1, “Selective Muscle Relaxant and Pharmaceutical Compositions” (UNIVERSIDADE FEDERAL DO RIO DE JANEIROUFRJ, priority 2004, published 2008).
